Patent publication US9540613B2, “Methods for producing insulin-secreting beta cells from human pluripotent stem cells” (Wisconsin Alumni Research Foundation, priority 2013, dated 2017)

Columns and labels:
[1] = tested on: PDX1, NKX6.1, Neurogenin 3 and insulin gene expression; test: QPCR gene expression of endoderm and pancreatic markers in differentiated cells; type: cell-based, human; details: presence or absence of nicotinamide at Stage 3
Description: QPCR was performed at the end of Stage 4 ([…] Day 18) to examine gene expression of PDX1, a marker of pancreatic epithelium and progenitor cells, insulin, a marker of beta cells, and Sox9 which is expressed in the developing pancreatic epithelium. The gene expression is compared to undifferentiated cells collected at Day 0 and β-Actin is the internal control. […] Human Fetal Pancreas (HFP), gestation 14-20 weeks, is represented as a positive control.
In FIG. 19, the gene expression is compared to undifferentiated cells collected at Day 0 and B-Actin is the internal control. On the y axis is delta CT (instead of fold change), thus, the lower the value the greater the gene expression.
First, alterations at Stage 3 and 4 altered gene expression minimally. […] On the y axis is delta CT (instead of fold change), thus, the lower the value the greater the gene expression. […] In contrast the addition of Noggin at Stage 4, decreased PDX1 and NKX6.1 gene expression and increased Neurogenin 3 expression. There was no difference in insulin gene expression following the addition of Noggin to Stage 4.

[2] = tested on: PDX1 and insulin protein expression in H1 cells; test: Flow cytometry of PDX1 and insulin protein expression at end of Stage 4; type: cell-based, human; details: for PDX1 and insulin double positive cells: loss of both nicotinamide and Exendin-4 from Stage 4 medium
Text: To quantify insulin and PDX1 protein expression we optimized a flow cytometry assay. […] The INS-1 cell line is an immortalized pancreatic beta cell line that expresses both PDX1 and insulin. On the bottom left, is our negative control, unstained H1 cells differentiated for 18 days. On the right, is H1 cells differentiated by the current protocol through day 18 stained with Insulin-PB and PDX1-AF488. […] Only 8-11% of the cells are PDX1 and insulin double positive.
To examine protein expression we collected cells at the end of Stage 4 and examined them by flow cytometry.
Thus, the effect of Noggin is context dependent and synergistic with nicotinamide and Exendin-4.

[3] = addition of nicotinamide at Stage 3, cells at end of Stage 4

Compound	gene expression (delta CT) [1]	PDX1 protein expression [2, 3]	double positive PDX and insulin positive cells [2, 3]	insulin protein expression [2, 3]	PDX1 and insulin double positive cells [2]	protein expression ([2]; loss of nicotinamide from Stage 4 medium)	protein expression of either PDX1 or insulin ([2]; loss of Exendin-4 from Stage 4 medium)	insulin protein expression ([2]; FGF2 instead of FGF7 at Stage 2)
NC(=O)c1cccnc1 [nicotinamide]	did not alter gene expression	decreased	little difference	increased	increases PDX1 and insulin double positive cells	little to no loss		
Exendin-4: a long-acting GLP-1 agonist					increases PDX1 and insulin double positive cells		little to no difference	
FGF2: Basic fibroblast growth factor								less insulin protein expression
